According to ChEMBL document CHEMBL4765227, “Hit to lead optimization of a series of N-[4-(1,3-benzothiazol-2-yl)phenyl]acetamides as monoacylglycerol lipase inhibitors with potential anticancer activity” (Eur J Med Chem, 2016):

How the values were obtained:
NCI-H23 = test: Growth inhibition of human NCI-H23 cells at 10 uM incubated for 48 hrs by sulforhodamine B assay relative to control; assay type: functional; conditions: read-out: GI
SR = test: Growth inhibition of human SR cells at 10 uM incubated for 48 hrs by sulforhodamine B assay relative to control; assay type: functional; conditions: read-out: GI
COLO 205 = test: Growth inhibition of human COLO 205 cells at 10 uM incubated for 48 hrs by sulforhodamine B assay relative to control; assay type: functional; conditions: read-out: GI
SF-295 = test: Growth inhibition of human SF-295 cells at 10 uM incubated for 48 hrs by sulforhodamine B assay relative to control; assay type: functional; conditions: read-out: GI
OVCAR-3 = test: Growth inhibition of human OVCAR-3 cells at 10 uM incubated for 48 hrs by sulforhodamine B assay relative to control; assay type: functional; conditions: read-out: GI
Hs-578T = test: Growth inhibition of human Hs-578T cells at 10 uM incubated for 48 hrs by sulforhodamine B assay relative to control; assay type: functional; conditions: read-out: GI
SK-MEL-2 = test: Growth inhibition of human SK-MEL-2 cells at 10 uM incubated for 48 hrs by sulforhodamine B assay relative to control; assay type: functional; conditions: read-out: GI
Monoglyceride lipase = molecular target: T1, Monoglyceride lipase (Homo sapiens, UniProt Q99685); test: Inhibition of human MAGL using 4-Nitrophenylacetate as substrate
T1 sequence (Q99685 whole entry): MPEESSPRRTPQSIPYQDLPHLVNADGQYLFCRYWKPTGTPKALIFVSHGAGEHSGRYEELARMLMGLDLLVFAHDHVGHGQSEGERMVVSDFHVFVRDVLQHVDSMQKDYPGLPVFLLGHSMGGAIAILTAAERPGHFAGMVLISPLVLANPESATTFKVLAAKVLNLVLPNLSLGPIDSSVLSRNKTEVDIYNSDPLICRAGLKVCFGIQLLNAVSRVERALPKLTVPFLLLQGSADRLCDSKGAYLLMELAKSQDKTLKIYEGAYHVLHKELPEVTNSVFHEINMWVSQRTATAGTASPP

SF-539 = test: Growth inhibition of human SF-539 cells at 10 uM incubated for 48 hrs by sulforhodamine B assay relative to control; assay type: functional; conditions: read-out: GI
SF-268 = test: Growth inhibition of human SF-268 cells at 10 uM incubated for 48 hrs by sulforhodamine B assay relative to control; assay type: functional; conditions: read-out: GI
A498 = test: Growth inhibition of human A498 cells at 10 uM incubated for 48 hrs by sulforhodamine B assay relative to control; assay type: functional; conditions: read-out: GI
786-0 = test: Growth inhibition of human 786-0 cells at 10 uM incubated for 48 hrs by sulforhodamine B assay relative to control; assay type: functional; conditions: read-out: GI
UACC-257 = test: Growth inhibition of human UACC-257 cells at 10 uM incubated for 48 hrs by sulforhodamine B assay relative to control; assay type: functional; conditions: read-out: GI
MCF7 = test: Growth inhibition of human MCF7 cells at 10 uM incubated for 48 hrs by sulforhodamine B assay relative to control; assay type: functional; conditions: read-out: GI
OVCAR-4 = test: Growth inhibition of human OVCAR-4 cells at 10 uM incubated for 48 hrs by sulforhodamine B assay relative to control; assay type: functional; conditions: read-out: GI
LOX IMVI = test: Growth inhibition of human LOX IMVI cells at 10 uM incubated for 48 hrs by sulforhodamine B assay relative to control; assay type: functional; conditions: read-out: GI
EKVX = test: Growth inhibition of human EKVX cells at 10 uM incubated for 48 hrs by sulforhodamine B assay relative to control; assay type: functional; conditions: read-out: GI

O=C(Cn1c2ccccc2c2ccccc21)Nc1ccc(-c2nc3ccccc3s2)cc1
inhibition of growth at 10 µM (NCI-H23): 6.54%
inhibition of growth at 10 µM (SR): 15.7%
inhibition of growth at 10 µM (COLO 205): -8.95%
inhibition of growth at 10 µM (SF-295): 3.61%
inhibition of growth at 10 µM (OVCAR-3): -4.48%
inhibition of growth at 10 µM (Hs-578T): -14.2%
inhibition of growth at 10 µM (SK-MEL-2): -0.88%
IC50 (Monoglyceride lipase): > 100 µM
inhibition of growth at 10 µM (SF-539): 4.12%
inhibition of growth at 10 µM (SF-268): 6.55%
inhibition of growth at 10 µM (A498): 9.51%
inhibition of growth at 10 µM (786-0): -1.17%
inhibition of growth at 10 µM (UACC-257): -1.24%
inhibition of growth at 10 µM (MCF7): 67.4%
inhibition of growth at 10 µM (OVCAR-4): -2.83%
inhibition of growth at 10 µM (LOX IMVI): 8.68%
inhibition of growth at 10 µM (EKVX): -3.36%

O=C(CN(c1ccccc1)c1ccccc1)Nc1ccc(-c2nc3ccccc3s2)cc1
inhibition of growth at 10 µM (NCI-H23): 3.7%
inhibition of growth at 10 µM (SR): 2.68%
inhibition of growth at 10 µM (COLO 205): -3.6%
inhibition of growth at 10 µM (SF-295): -3.15%
inhibition of growth at 10 µM (OVCAR-3): -4.14%
inhibition of growth at 10 µM (Hs-578T): 14.3%
inhibition of growth at 10 µM (SK-MEL-2): -0.42%
IC50 (Monoglyceride lipase): > 100 µM
inhibition of growth at 10 µM (SF-539): 4.21%
inhibition of growth at 10 µM (SF-268): -3.74%
inhibition of growth at 10 µM (A498): 6.91%
inhibition of growth at 10 µM (786-0): -1.87%
inhibition of growth at 10 µM (UACC-257): -8.16%
inhibition of growth at 10 µM (MCF7): 52%
inhibition of growth at 10 µM (OVCAR-4): -13.3%
inhibition of growth at 10 µM (LOX IMVI): 6.1%
inhibition of growth at 10 µM (EKVX): -9.19%
